Converted amounts (≈) assume the structure as drawn. Where two headings read alike, the source gives them in different places.
How the values were obtained:
Human C5 [1] = target: T1, Human C5 (Homo sapiens, UniProt P01031); assay: Red blood cell (RBC) hemolysis assay, luminescent (Example 28, Table 32); type: cell-based; conditions: sheep EA cells, 1.5% C5-depleted human serum, 0.5 nM human C5, 1 hour at 37° C., luminescence (Table 32)
T1 construct: purchased Complement Technology

[2] = Kinetic solubility in PBS pH 7.4, HPLC-UV (Example 21, Table 27); type: physicochemical; conditions: phosphate buffered saline, aqueous buffer, kinetic from dmso stock, 0.5 M PBS, shaken minimum 24 h at approximately 25° C., HPLC-UV 270 nm
Description: Compounds were analyzed for kinetic solubility values using a standard kinetic solubility assay format. First, test compounds were dissolved in DMSO (Aldrich Chemical Co., Milwaukee, Wis., USA) at a concentration of 0.010 mol/L and used to prepare standard calibrators in DMSO solution. 500.0 μM, 250.0 μM, 125.0 μM, 62.5 μM, 31.2 μM, and 15.6 μM standards were prepared in a Greiner UV-Star clear V-bottom 96-well plate (Greiner-Bio One, Germany) for generating a standard curve. Using Alfa Aesar's Sodium phosphate, 0.2 M buffer solution, pH 7.4 (Alfa Aesar, Haverhill, Mass., USA), aqueous phosphate buffered saline (PBS) was prepared by diluting with Milli-Q water for a final concentration of 0.05 M. The pH of the solution was adjusted to 7.4±0.1 using 0.1 M hydrochloric acid (Fisher Scientific Waltham, Mass., USA) or 0.1 M aqueous sodium hydroxide (Fisher Scientific Waltham, Mass., USA).
10 μL of 0.010 mol/L DMSO test compound stock solutions were pipetted to separate 1.5 mL centrifuge tubes in triplicate. To these tubes, 190 μl of 0.05 M PBS was added. Each tube was gently vortexed for 5 sec. The tubes were shaken for a minimum of 24 h at approximately 25° C. After shaking, the solutions were transferred to 0.5 mL centrifuge filter tubes (MilliporeSigma, Burlington, Mass., USA) and centrifuged at 10,000 rpm for 5 min. After centrifugation, supernatants were collected and used for compound concentration analysis.
Compound concentrations in each solution were determined using high pressure liquid chromatography (HPLC) with ultraviolet (UV) detection and comparison with external standards. For HPLC, a Waters Acquity CSH Phenyl-Hexyl column (2.1 mm×50 mm, 1.7 μm) was used together with a generic gradient method on a Waters H-class system equipped with a diode array detector: Solvent A=0.1% formic acid in water, Solvent B=0.1% formic acid in acetonitrile (MilliporeSigma, Burlington, Mass., USA), flow=0.65 mL/min, (t=0 min: 95% A-5% B, t=4.75 min: 0% A-100% B, t=4.85 min: 0% A-100% B, t=4.86 min: 95% A-5% B, t=5 min: 95% A-5% B). UV quantifications were performed at 270 nm. Solution concentrations were calculated using Microsoft Excel.

purified human C5 = purified human C5 (Homo sapiens, UniProt P01031); assay: Red blood cell (RBC) hemolysis assay, optical, absorbance 412 nm (Example 10, Table 19); type: cell-based; conditions: antibody-sensitized sheep erythrocytes, […] human C5 depleted sera, 0.5 nM purified human C5, absorbance 412 nm; read-out: RBC Hemolysis IC50
Chain of purified human C5 (P01031 19-1676): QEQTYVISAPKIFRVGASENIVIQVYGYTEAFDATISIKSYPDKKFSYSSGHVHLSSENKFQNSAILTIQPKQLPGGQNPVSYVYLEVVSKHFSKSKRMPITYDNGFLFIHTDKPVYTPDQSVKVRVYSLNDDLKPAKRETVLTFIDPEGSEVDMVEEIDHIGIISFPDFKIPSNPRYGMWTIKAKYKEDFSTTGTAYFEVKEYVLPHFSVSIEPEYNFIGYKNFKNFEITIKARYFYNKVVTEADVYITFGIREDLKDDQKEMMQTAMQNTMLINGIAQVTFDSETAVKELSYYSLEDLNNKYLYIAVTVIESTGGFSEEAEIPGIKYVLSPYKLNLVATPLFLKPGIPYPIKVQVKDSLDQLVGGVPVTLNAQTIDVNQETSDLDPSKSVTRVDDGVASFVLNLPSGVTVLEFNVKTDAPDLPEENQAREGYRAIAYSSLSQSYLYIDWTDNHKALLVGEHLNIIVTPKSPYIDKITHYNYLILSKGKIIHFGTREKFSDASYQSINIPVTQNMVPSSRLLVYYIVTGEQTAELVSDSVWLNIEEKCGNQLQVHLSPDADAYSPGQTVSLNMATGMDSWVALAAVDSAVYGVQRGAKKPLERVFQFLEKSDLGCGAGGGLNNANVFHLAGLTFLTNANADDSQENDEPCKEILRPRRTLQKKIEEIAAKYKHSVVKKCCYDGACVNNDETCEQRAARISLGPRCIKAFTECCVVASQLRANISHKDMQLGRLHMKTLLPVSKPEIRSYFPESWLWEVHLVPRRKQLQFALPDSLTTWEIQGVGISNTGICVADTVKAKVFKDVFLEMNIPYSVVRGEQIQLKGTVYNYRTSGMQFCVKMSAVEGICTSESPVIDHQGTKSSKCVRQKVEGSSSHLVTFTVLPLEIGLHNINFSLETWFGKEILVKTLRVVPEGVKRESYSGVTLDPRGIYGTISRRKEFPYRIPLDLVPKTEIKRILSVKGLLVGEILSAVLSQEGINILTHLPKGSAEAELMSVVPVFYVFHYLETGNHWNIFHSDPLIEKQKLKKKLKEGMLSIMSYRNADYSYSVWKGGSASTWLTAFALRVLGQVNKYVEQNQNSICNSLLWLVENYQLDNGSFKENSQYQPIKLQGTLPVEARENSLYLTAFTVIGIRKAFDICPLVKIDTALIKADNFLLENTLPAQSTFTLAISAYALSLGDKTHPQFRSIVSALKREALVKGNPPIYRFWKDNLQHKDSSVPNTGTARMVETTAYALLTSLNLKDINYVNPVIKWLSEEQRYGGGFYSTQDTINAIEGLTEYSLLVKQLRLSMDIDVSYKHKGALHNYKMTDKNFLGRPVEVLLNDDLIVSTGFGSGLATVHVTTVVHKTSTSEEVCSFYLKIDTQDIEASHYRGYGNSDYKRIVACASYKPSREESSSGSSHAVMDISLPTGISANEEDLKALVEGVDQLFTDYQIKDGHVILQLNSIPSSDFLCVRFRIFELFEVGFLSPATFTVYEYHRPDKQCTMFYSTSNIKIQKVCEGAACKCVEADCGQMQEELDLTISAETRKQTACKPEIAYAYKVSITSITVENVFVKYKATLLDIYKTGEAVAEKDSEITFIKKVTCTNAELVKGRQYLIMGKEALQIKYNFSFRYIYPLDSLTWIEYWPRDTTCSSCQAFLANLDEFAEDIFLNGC

Human C5 [3] = target: T1, Human C5; assay: Surface plasmon resonance (SPR), immobilized human C5 (Example 9, Table 18); type: binding
Excerpt: Morrison and Boyd in “Organic Chemistry”, 6th edition, Prentice Hall (1992)] and validated for proper structure by mass spectrometry.

[4] = immobilized human C5, equilibrium dissociation constant, read-out: SPR C5 EQ KD
[5] = SPR, human C5 immobilized, read-out: equilibrium dissociation constant for interaction with C5

T1 sequence (P01031 19-1676): as above

SMILES	solubility kinetic [2] [µM]	Kd (Human C5 [3]; [4]) [nM]	Kd (Human C5 [3]; [5]) [nM]	IC50 (Human C5 [1]) [nM]	IC50 (purified human C5) [nM]
CCCCCOc1cc(N2CC[C@@H](C)N(Cc3cccc4[nH]cc(Cl)c34)C2=O)ccc1OC [SC0167]	< 10			3.2	
COc1ccc(NC(=O)NCc2ccnc(NCCN(C)C)c2OC)cc1OCCCC(C)C [Compound C5INH-0453]		25			65.5
COc1ccc(C2CCCN2C(=O)Nc2ccc(OC)c(OCCCC(C)C)c2)cc1 (centres unmarked) [Compound C5INH-0387]		320			577
CCCCCOc1cc(N2CC(C(N)=O)CN(Cc3ccc(CC(=O)N(C)C)cc3OC)C2=O)ccc1OC (centres unmarked) [SC0204]	465 (≈ 251 µg/mL)			10.9	
COc1ccc(C(CO)NC(=O)Nc2ccc(OC)c(OCCCC(C)C)c2)cc1OC (centres unmarked) [Compound C5INH-0352]		700			2950
COc1ccc(NC(=O)N[C@@H](CO)c2ccccc2)cc1OCCC1CCCCC1 [Compound C5INH-0350]		160			653
COc1cc(CC(=O)N2CCN(C)CC2)ccc1CN1C(=O)N(c2ccc(OC)c(OCCCC3CC3)c2)CC[C@@H]1C [SC0137]	275 (≈ 159 µg/mL)			1.8	
COc1ccc(NCCCN(C)C)cc1CNC(=O)Nc1ccc(OC)c(OCCCC(C)C)c1 [Compound C5INH-0535]		260			1040
COc1ccc(NC(=O)NC(CO)c2ccc3[nH]ccc3c2)cc1OCCCC(C)C (centres unmarked) [Compound C5INH-0353]		580			328
COc1ccc(NC(=O)N[C@@H](CO)c2ccccc2)cc1OCCc1cccs1 [Compound C5INH-0349]		1210			1500
COc1ccc(NC(=O)NC(CO)c2cccc(CNCCN3CCOCC3)c2)cc1OCCCC(C)C (centres unmarked) [Compound C5INH-0379]		499			3630
COc1ccc(NC(=O)NC(CO)c2ccccc2)cc1COCCC(C)C (centres unmarked) [Compound C5INH-0477]		1130			1460
COc1ccc(NC(=O)NCc2cncs2)cc1OCCCC(C)C [Compound C5INH-0329]		3200			4010
COCCOCCOc1cc(CNC(=O)Nc2ccc(OC)c(OCCCC(C)C)c2)ccn1 [Compound C5INH-0384]		810			2180
COc1ccc(NC(=O)N2CCCC2c2ccc(N(C)C)cc2)cc1OCCCC(C)C (centres unmarked) [Compound C5INH-0396]		1400			2330
COc1cc(CC(N)=O)c(NC(=O)N[C@@H](CO)c2ccccc2)cc1OCCCC(C)C [Compound C5INH-0422]		1340			1370
COc1ccc(NC(=O)NC(CO)c2cccc(CNC(=O)OC(C)(C)C)c2)cc1OCCCC(C)C (centres unmarked) [Compound C5INH-0372]		670			3270
COc1cc(CC(=O)N(C)C)c(NC(=O)N[C@@H](CO)c2ccccc2)cc1OCCCC(C)C [Compound C5INH-0440]		7600			3160
COc1ccc(NC(=O)NC(CO)c2cccnc2OC)cc1OCCCC(C)C (centres unmarked) [Compound C5INH-0316]		58			60
COc1ccc(NC(=O)N[C@@H](CO)c2ccccc2)cc1C(F)CCCC(C)C (some centres unmarked) [Compound C5INH-0432]		530			417
COCCOc1cc(CNC(=O)Nc2ccc(OC)c(OCCCC(C)C)c2)ccn1 [Compound C5INH-0381]		120			1040
COc1cc(CCN2CCS(=O)(=O)CC2)ccc1CN1C(=O)N(c2ccc(OC)c(OCCCC3CC3)c2)CC[C@@H]1C [SC0162]	< 10			2.8	
CCCCCOc1cc(N2CC[C@H](C)N(Cc3ccnc4c3c(Cl)cn4CC(=O)N3CCO[C@H](COC)C3)C2=O)ccc1OC [SC0127]	< 10			1.7	
COc1cc(CC(=O)N2CCNC(=O)C2)ccc1CN1CC(C)CN(c2ccc(OC)c(OCCCC3CC3)c2)C1=O (centres unmarked) [SC0158]	16 (≈ 9.26 µg/mL)			2.7	

Further lines, with some results ahead:

solubility kinetic [2] [µM]	Kd (Human C5 [3]; [4]) [nM]	Kd (Human C5 [3]; [5]) [nM]	SMILES	IC50 (Human C5 [1]) [nM]	IC50 (purified human C5) [nM]
	52		CCOc1ccccc1CNC(=O)Nc1ccc(OC)c(OCCCC(C)C)c1 [Compound C5INH-0339]		878
	20		COc1ccc(OC)c(CNC(=O)Nc2ccc(OC)c(OCCCC(C)C)c2)c1 [Compound C5INH-0296]		680
	195		COc1ccc(NC(=O)NCc2ccccc2OCCC2CCOC2)cc1OCCCC(C)C (centres unmarked) [Compound C5INH-0338]		4370
	300		CNc1ccc(CNC(=O)Nc2ccc(OC)c(OCCCC(C)C)c2)cc1 [Compound C5INH-0443]		1990
	530		COc1ccc(NC(=O)NCc2ccc(N)nc2)cc1OCCCC(C)C [Compound C5INH-0428]		3060
	731		COc1ccc(NC(=O)NCc2cccc(CN3CCCC3=O)c2)cc1OCCCC(C)C [Compound C5INH-0323]		1920
	278		COc1ccc(NC(=O)NCc2ccnc3c2ccn3CCCN2CCCC2)cc1OCCCC(C)C [Compound C5INH-0490]		144
	69		COc1ccc(NC(=O)NCc2cc(F)ccc2O)cc1OCCCC(C)C [Compound C5INH-0473]		21.5
	9.3	< 20	COc1ccc(NC(=O)NCc2cccc3c2ccn3CC2CCCN2C)cc1OCCCC(C)C (centres unmarked) [Compound C5INH-0519]		96.7
	885		COc1ccc(NC(=O)NCc2cccc3cccnc23)cc1OCCCC(C)C [Compound C5INH-0450]		298
	52		COc1ccc(NC(=O)NCc2ccnc3c2ccn3C)cc1OCCCC(C)C [Compound C5INH-0361]		2350
	180		COCCOc1ccccc1CNC(=O)Nc1ccc(OC)c(OCCCC(C)C)c1 [Compound C5INH-0335]		2090
	260		COc1ccc(NC(=O)NCc2c(F)cccc2OC)cc1OCCCC(C)C [Compound C5INH-0326]		784
	104		COc1ccc(NC(=O)NCc2cccc(N3CCN(C)CC3)c2)cc1OCCCC(C)C [Compound C5INH-0369]		592
	2070		COc1ccc(NC(=O)N(C)Cc2cccc3ccn(C)c23)cc1OCCCC(C)C [Compound C5INH-0492]		2650
	693		COc1ccc(NC(=O)NCc2ncccc2OC)cc1OCCCC(C)C [Compound C5INH-0417]		1130
	2900		COc1ccc(NC(=O)NCc2ccc3c(c2)OCO3)cc1OCCCC(C)C [Compound C5INH-0330]		2660
	710		COc1ccc(NC(=O)NCc2cccc(C(=N)N)c2)cc1OCCCC(C)C [Compound C5INH-0303]		2940
	48		COc1cnccc1CNC(=O)Nc1ccc(OC)c(OCCCC(C)C)c1 [Compound C5INH-0401]		136
	89		COC(=O)CCn1ccc2c(CNC(=O)Nc3ccc(OC)c(OCCCC(C)C)c3)ccnc21 [Compound C5INH-0398]		329
	210		COc1ccc(NC(=O)NCc2ccnc3c2ccn3CCCN)cc1OCCCC(C)C [Compound C5INH-0544]		130
	10.7	< 20	COc1ccc(NC(=O)NCc2cc(F)cc3[nH]ccc23)cc1OCCCC(C)C [Compound C5INH-0517]		369
	280		COc1ccc(NC(=O)NC(CO)c2cccc3c2ccn3C)cc1OCCCC(C)C (centres unmarked) [Compound C5INH-0463]		808
	204		COc1ccc(NC(=O)NCc2ccc3c(ccn3CC(=O)N(C)C)c2)cc1OCCCC(C)C [Compound C5INH-0447]		536
	500		COc1ccc(NC(=O)NCc2ccc3c(ccn3CCN(C)C)c2)cc1OCCCC(C)C [Compound C5INH-0414]		781
	32		COc1ccc(NC(=O)NCc2cccc3c2ncn3CCN(C)C)cc1OCCCC(C)C [Compound C5INH-0536]		175
	47		COc1ccc(NC(=O)NCc2ccnc3c2ccn3CCN2CCCC2)cc1OCCCC(C)C [Compound C5INH-0377]		156

— patent publication US20230115176A1 (Ra Pharmaceuticals, Inc., priority 2019, published 2023)
